Calls of active or inactive are those of the source. No cut-off for these calls is given here.
Test system: Human immunodeficiency virus 1
Assay: Compound was tested for antiretroviral activity against HIV; compound found active.
Type: functional, organism-based

Structure (SMILES): O=c1[nH]cnc2c1ncn2[C@H]1CC[C@@H](CO)O1
- Activity: Active
